Measurements: US6472348B1, “Pyridone derivatives and herbicides” (Kumiai Chemical Industry Co., Ltd., priority 1996, dated 2002)

Tests used:
Assay type in all cases: in vivo
Parameters in all cases: scale not given here
slender amaranth (Am) [1] = test: Test Example 3: herbicidal effects by upland field foliage treatment
Outline: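 Foliage-applied treatment on weeds pre-grown for 2 weeks in a greenhouse. Pots held sand (surface area 120 cm^2); seeds were sown and covered with soil. Evaluation: graded herbicidal effect 14 days post-application.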

China jute (Ab) [2] = test: Test Example 6: crop plant selectivity by upland field soil treatment (soybean), herbicidal effects; details: 21st day after application
Outline: (§1)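 Greenhouse pot test with soil-applied compound after sowing soybean and weeds in sand; effects graded on day 21 after application.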

[3] = tested on: common lambsquarters (Ch); test: as above; details: 21st day after application
Outline: as §1

green foxtail (Se) = test: as above; details: 21st day after application
Outline: as §1

China jute (Ab) [4] = test: Test Example 11: crop plant selectivity by upland field foliage treatment (corn), herbicidal effects
Outline: (§2)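 Corn and the weed species were sown together in sand-filled pots and grown in a greenhouse for 2 weeks before foliar treatment. Herbicidal effect was scored on day 14 after treatment against a graded standard scale, with corn phytotoxicity scored alongside.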

[5] = tested on: common lambsquarters (Ch); test: as above
Outline: as §2

pale smartweed (Po) = test: as above
Outline: as §2

slender amaranth (Am) [6] = test: as above
Outline: as §2

[7] = 100 g of the active ingredient per 10 ares, evaluated on the 14th day after treatment
[8] = upland field foliage treatment (corn test), dose 1.6 g ai/10a, 14th day after treatment
[9] = 100 g active ingredient per 10 ares, evaluated 14th day after treatment
[10] = upland field foliage treatment (corn test), dose 0.1 g ai/10a, 14th day after treatment

| SMILES | Herbicidal effects Am (slender amaranth (Am) [1]; [7]) | Herbicidal effects Ab (China jute (Ab) [2]; dose 6.3 g ai/10a) | Herbicidal effects Ch ([3]; dose 6.3 g ai/10a) | Herbicidal effects Se (green foxtail (Se); dose 6.3 g ai/10a) | Herbicidal effects Ab (China jute (Ab) [4]; [8]) | Herbicidal effects Ch [5, 8] | Herbicidal effects Po (pale smartweed (Po); [8]) | Herbicidal effects Am (slender amaranth (Am) [6]; [8]) | Herbicidal effects Am (slender amaranth (Am) [1]; [9]) | Herbicidal effects Ab (China jute (Ab) [2]; dose 1.6 g ai/10a) | Herbicidal effects Ch ([3]; dose 1.6 g ai/10a) | Herbicidal effects Se (green foxtail (Se); dose 1.6 g ai/10a) | other results |
| --- | --- | --- | --- | --- | --- | --- | --- | --- | --- | --- | --- | --- | --- |
| C=CC(C)Oc1cc(-c2ccc(C(F)(F)F)n(C)c2=O)c(F)cc1Cl (stereo not drawn) [Compound 1-182] | 5 | 5 | 5 | 5 | 5 | 5 | 5 | 5 |  |  |  |  |  |
| C#CCN1C(=O)COc2cc(F)c(-c3ccc(C(F)(F)F)n(C)c3=O)cc21 [Compound No. 2-1, 3-[7-fluoro-2,3-dihydro-4-(2-propynyl)-1,4-benzoxazin-3-on-6-yl]-1-methyl-6-trifluoromethyl-2(1H)-pyridone] |  | 5 | 5 | 5 |  |  |  |  | 5 | 5 | 5 | 5 | Herbicidal effects Ab (China jute (Ab) [4]; [10]): 5; Herbicidal effects Ch [5, 10]: 5; Herbicidal effects Po (pale smartweed (Po); [10]): 5; Herbicidal effects Am (slender amaranth (Am) [6]; [10]): 5 |
| C#CCN1C(=O)COc2cc(F)c(-c3cn(C)c(C(F)(F)F)cc3=O)cc21 [Compound 7-1] |  | 5 | 5 | 5 |  |  |  |  | 5 |  |  |  | Herbicidal effects Ab (China jute (Ab) [4]; China jute, foliage treatment, dose 1.6 g ai/10a, evaluated on 14th day after treatment, index per Table 47): 5; Herbicidal effects Ch ([5]; common lambsquarters, foliage treatment, dose 1.6 g ai/10a, evaluated on 14th day after treatment, index per Table 47): 5; Herbicidal effects Po (pale smartweed (Po); pale smartweed, foliage treatment, dose 1.6 g ai/10a, evaluated on 14th day after treatment, index per Table 47): 5; Herbicidal effects Am (slender amaranth (Am) [6]; slender amaranth, foliage treatment, dose 1.6 g ai/10a, evaluated on 14th day after treatment, index per Table 47): 5 |
| CC(C)Sc1cc(-c2ccc(C(F)(F)F)n(C)c2=O)c(F)cc1Cl [1-43] | 5 | 4 | 5 | 5 |  |  |  |  |  |  |  |  |  |
| CON=Cc1cc(-c2ccc(C(F)(F)F)n(C)c2=O)c(F)cc1Cl [Compound No. 1-72, 5-(1-methyl-6-trifluoromethyl-2(1H)-pyridon-3-yl)-2-chloro-4-fluorobenzaldehydeoxime-O-methyl ether] | 5 | 5 | 5 | 5 | 5 | 5 | 5 | 5 |  | 5 | 5 | 5 |  |
| CCCc1cc2c(-c3ccc(C(F)(F)F)n(C)c3=O)c(F)cc(Cl)c2o1 [Compound 4-3] |  | 5 | 5 | 5 | 5 | 5 | 5 | 5 | 5 |  |  |  |  |
| CCON=Cc1cc(-c2ccc(C(F)(F)F)n(C)c2=O)c(F)cc1Cl [Compound 1-187] |  | 5 | 5 | 5 | 5 | 5 | 5 | 5 | 5 |  |  |  |  |
| C=CC(O)c1cc(-c2ccc(C(F)(F)F)n(C)c2=O)c(F)cc1Cl (stereo not drawn) [Compound 1-197] |  | 5 | 5 | 5 | 5 | 5 | 5 | 5 | 5 |  |  |  |  |
| Cn1cc(-c2cc(Oc3ccccc3)c(Cl)cc2F)c(=O)cc1C(F)(F)F [Compound No. 6-19, 5-(4-chloro-2-fluoro-5-phenoxyphenyl)-1-methyl-2-trifluoromethyl-4(1H)-pyridone] |  | 5 | 5 | 5 |  |  |  |  | 5 | 3 | 3 | 5 |  |
| COCSc1cc(-c2ccc(C(F)(F)F)n(C)c2=O)c(F)cc1Cl [1-91] | 5 | 5 | 5 | 5 |  |  |  |  |  | 5 | 5 | 5 |  |
| Cn1c(C(F)(F)F)ccc(-c2cc(OCC#N)c(Cl)cc2F)c1=O [1-25] | 5 | 5 | 5 | 5 | 5 | 5 | 5 | 5 |  |  |  |  |  |
| C#CC(O)c1cc(-c2ccc(C(F)(F)F)n(C)c2=O)c(F)cc1Cl (stereo not drawn) [Compound 1-202] |  |  |  |  |  |  |  |  | 5 | 5 | 5 | 5 |  |
| CCOC(=O)c1cc(-c2ccc(C(F)(F)F)n(C)c2=O)c(F)cc1Cl [1-65] | 5 | 5 | 5 | 5 | 5 | 5 | 5 | 5 |  | 5 | 5 | 5 |  |
| Cn1c(C(F)(F)F)ccc(-c2cc(Cl)c(Cl)cc2F)c1=O [1-136] | 5 | 5 | 5 | 5 |  |  |  |  |  | 4 | 5 | 5 |  |
| COCc1cc2c(-c3ccc(C(F)(F)F)n(C)c3=O)c(F)cc(Cl)c2o1 [Compound No. 4-4, 3-(7-chloro-5-fluoro-2-methoxymethylbenzofuran-4-yl)-1-methyl-6-trifluoromethyl-2-(1H)-pyridone] |  | 5 | 5 | 5 | 5 | 5 | 5 | 5 | 5 |  |  |  |  |
| C=CCN1C(=O)COc2cc(Cl)c(-c3ccc(C(F)(F)F)n(C)c3=O)cc21 [Compound 2-26] |  | 5 | 5 | 5 | 5 | 5 | 5 | 5 | 5 |  |  |  |  |

| SMILES | Herbicidal effects Am (slender amaranth (Am) [1]; [7]) | Herbicidal effects Ab (China jute (Ab) [2]; dose 6.3 g ai/10a) | Herbicidal effects Ch ([3]; dose 6.3 g ai/10a) | Herbicidal effects Se (green foxtail (Se); dose 6.3 g ai/10a) | Herbicidal effects Ab (China jute (Ab) [4]; [8]) | Herbicidal effects Ch [5, 8] | Herbicidal effects Po (pale smartweed (Po); [8]) | Herbicidal effects Am (slender amaranth (Am) [6]; [8]) | Herbicidal effects Am (slender amaranth (Am) [1]; [9]) | Herbicidal effects Ab (China jute (Ab) [2]; dose 1.6 g ai/10a) | Herbicidal effects Ch ([3]; dose 1.6 g ai/10a) | Herbicidal effects Se (green foxtail (Se); dose 1.6 g ai/10a) | other results |
| --- | --- | --- | --- | --- | --- | --- | --- | --- | --- | --- | --- | --- | --- |
| C=CCN1C(=O)COc2cc(F)c(-c3ccc(C(F)(F)F)n(C)c3=O)cc21 [Compound 2-7] |  | 5 | 5 | 5 |  |  |  |  | 5 | 5 | 5 | 5 |  |
| C=CCOc1cc(-c2ccc(C(F)(F)F)n(C)c2=O)c(F)cc1Cl [1-16] | 5 |  |  |  | 5 | 5 | 5 | 5 |  | 5 | 5 | 5 |  |
| C#CC(C)Oc1cc(Cl)cc(F)c1-c1ccc(C(F)(F)F)n(C)c1=O (stereo not drawn) [1′-5] |  | 5 | 5 | 5 | 5 | 5 | 5 | 5 | 5 | 5 | 5 | 4 |  |
| C#CCOc1cc(-c2ccc(C(F)(F)F)n(C)c2=O)c(F)cc1Cl [1-18] | 5 |  |  |  | 5 | 5 | 5 | 5 |  | 5 | 5 | 5 |  |
| C#CCSc1cc(-c2ccc(C(F)(F)F)n(C)c2=O)c(F)cc1Cl [1-44] | 5 | 5 | 5 | 5 |  |  |  |  |  |  |  |  |  |
| Cn1c(C(F)(F)F)ccc(-c2c(F)cc(Cl)c3oc(CO)cc23)c1=O [Compound No. 4-5, 3-(7-chloro-5-fluoro-2-hydroxymethylbenzofuran-4-yl)-1-methyl-6-trifluoromethyl-2-(1H)-pyridone] |  | 5 | 5 | 5 | 5 | 5 | 5 | 5 | 5 |  |  |  |  |
| Cc1cc2c(-c3ccc(C(F)(F)F)n(C)c3=O)c(F)cc(Cl)c2o1 [Compound 4-1] |  | 5 | 5 | 5 |  |  |  |  | 5 | 5 | 5 | 5 |  |
| CCc1cc2c(-c3ccc(C(F)(F)F)n(C)c3=O)c(F)cc(Cl)c2o1 [Compound 4-2] |  |  |  |  |  |  |  |  | 5 | 5 | 5 | 5 |  |
| C#CCn1c(=O)sc2cc(F)c(-c3ccc(C(F)(F)F)n(C)c3=O)cc21 [Compound No. 3-1, 3-[6-fluoro-3-(2-propynyl)-benzothiazolin-2-on-5-yl]-1-methyl-6-trifluoromethyl-2(1H)-pyridone] |  | 5 | 5 | 5 |  |  |  |  | 5 |  |  |  |  |
| C#CCOc1cc(-c2ccc(C(F)(F)F)n(N)c2=O)c(F)cc1Cl [1-178] | 5 |  |  |  | 5 | 5 | 5 | 5 |  |  |  |  |  |
| COc1cc(-c2ccc(C(F)(F)F)n(N)c2=O)c(F)cc1Cl [1-179] | 5 |  |  |  | 5 | 5 | 5 | 5 |  |  |  |  |  |
| Cn1c(C(F)(F)F)ccc(-c2cc(OCC3CC3)c(Cl)cc2F)c1=O [1-160] | 5 | 5 | 5 | 5 |  |  |  |  |  |  |  |  |  |
| Cn1c(C(F)(F)F)ccc(-c2cc(OCC(F)(F)F)c(Cl)cc2F)c1=O [1-155] | 5 | 5 | 5 | 5 |  |  |  |  |  | 5 | 5 | 5 |  |
| COc1cc(-c2ccc(C(F)(F)F)n(C)c2=O)c(F)cc1Cl [1-15] | 5 |  |  |  |  |  |  |  |  | 5 | 5 | 5 |  |
| C#CC(C)Oc1cc(-c2ccc(C(F)(F)F)n(C)c2=O)c(F)cc1Cl (stereo not drawn) [1-17] | 5 |  |  |  |  |  |  |  |  | 5 | 5 | 5 |  |
